Measurements: ChEMBL document CHEMBL1133235, “Kinetic characterisation of ene-diol-based inhibitors of alpha-amylase” (Bioorg Med Chem Lett, 2000)

Tested on: alpha-amylase (Hordeum vulgare)
Experiment: Percent inhibition of Alpha-amylase activity was determined at 5 mM
Details: malt

Question: `O=C(O)/C(O)=C(\O)C(=O)O` was tested. Which inhibition did it give?
Answer: 92%
